From patent publication US20260199500A1, “Camptothecin Derivative, Conjugate Thereof, Preparation Method Therefor and Medical Use Thereof” (priority 2023, published 2026)

Key:
[1] = US 20210169852 A; cited from earlier work
[2] = test system: N87 gastric cancer cells; experiment: Inhibitory activity of compounds on N87 gastric cancer cells (CellTiter-Glo, 144 h); type: cell-based; conditions: IC50 of PY-X (DXD) set to 1; values are ratios of measured IC50 to DXD; 144 h
Method: (§1) On the day of the experiment, the cells were digested with 0.25% trypsin (Gibco, 25200-072), filtered through a 40 μm sieve, diluted with the corresponding medium to a cell density of 1×10^4 cells/mL, and inoculated into a 96-well white cell culture plate (Beyotime, FCP968), with 100 μL of cells added per well. The culture plate was placed in a 37° C. incubator (Thermo 311) containing 5% C02 and incubated for 24 hours. On the second day, the samples to be tested were prepared as a stock solution at a final concentration of 1M in DMSO (Sigma, D1650), then diluted with the corresponding medium to a final concentration of 200 nM, and subjected to four-fold serial dilutions, resulting in a total of 9 concentrations. 100 μL of the diluted sample was added to each well of the 96-well plate. The plate was placed in a 37° C. incubator containing 5% CO2 and incubated for 144 hours. The cell culture plate was then removed, and 100 μL of the cell viability assay reagent (CellTiter-Glo® Luminescent Cell Viability Assay, Promega, G7571) was added to each well. The reaction was carried out in the dark at room temperature for 5 minutes. Luminescence values were read using a microplate reader (TECAN SPARK), and data were processed using Graphpad Prism 7 software.
(§2) PY—Y is referenced in the document (WO2022170971A1); and PY-A is referenced in the document (WO2021148501A1).

[3] = test system: MDA-MB-468 breast cancer cells; experiment: Inhibitory activity of compounds on MDA-MB-468 breast cancer cells (CellTiter-Glo); type: cell-based; conditions: IC50 of PY-X (DXD) set to 1; values are ratios of measured IC50 to DXD
Method: as §1, §2

[4] = test system: H358 (NSCLC) cells; experiment: Inhibition of H358 cells by compounds; type: cell-based; conditions: PY-X (DXD) set to 1
Method: as §1

[5] = test system: H82 (SCLC) cells; experiment: Inhibition of H82 cells by compounds; type: cell-based; conditions: PY-X (DXD) set to 1
Method: as §1

[6] = test system: H1650 (NSCLC) cells; experiment: Inhibition of H1650 cells by compounds; type: cell-based; conditions: PY-X (DXD) set to 1
Method: as §1

[7] = test system: H1975 (NSCLC) cells; experiment: Inhibition of H1975 cells by compounds; type: cell-based; conditions: PY-X (DXD) set to 1
Method: as §1

[8] = test system: H1437 (NSCLC) cells; experiment: Inhibition of H1437 cells by compounds; type: cell-based; conditions: PY-X (DXD) set to 1
Method: as §1

[9] = test system: H23 (NSCLC) cells; experiment: Inhibition of H23 cells by compounds; type: cell-based; conditions: PY-X (DXD) set to 1
Method: as §1

[10] = test system: SW1573 (NSCLC) cells; experiment: Inhibition of SW1573 cells by compounds; type: cell-based; conditions: PY-X (DXD) set to 1
Method: as §1

[11] = test system: PANC-1 (Pancreatic) cells; experiment: Inhibition of PANC-1 cells by compounds; type: cell-based; conditions: PY-X (DXD) set to 1
Method: as §1

[12] = test system: Colo-205 (Colon) cells; experiment: Inhibition of Colo-205 cells by compounds; type: cell-based; conditions: PY-X (DXD) set to 1
Method: as §1

[13] = test system: HT-29 (Colon) cells; experiment: Inhibition of HT-29 cells by compounds; type: cell-based; conditions: PY-X (DXD) set to 1
Method: as §1

[14] = test system: A549 (NSCLC) cells; experiment: Inhibition of A549 cells by compounds; type: cell-based; conditions: PY-X (DXD) set to 1
Method: as §1

[15] = test system: FADU (HNSCC) cells; experiment: Inhibition of FADU cells by compounds; type: cell-based; conditions: PY-X (DXD) set to 1
Method: as §1

[16] = test system: OVCAR3 (Ovarian) cells; experiment: Inhibition of OVCAR3 cells by compounds; type: cell-based; conditions: PY-X (DXD) set to 1
Method: as §1

[17] = test system: PA-1 (Ovarian) cells; experiment: Inhibition of PA-1 cells by compounds; type: cell-based; conditions: PY-X (DXD) set to 1
Method: as §1

[18] = test system: SW1990 (Pancreatic) cells; experiment: Inhibition of SW1990 cells by compounds; type: cell-based; conditions: PY-X (DXD) set to 1
Method: as §1

[19] = test system: DMS53 (SCLC) cells; experiment: Inhibition of DMS53 cells by compounds; type: cell-based; conditions: PY-X (DXD) set to 1
Method: as §1

CC[C@@]1(O)C(=O)OCc2c1cc1n(c2=O)Cc2c-1nc1cc(F)c(C)c3c1c2[C@@H](NC(=O)CO)CC3 [DXd]
times less active than exatecan [1]: 2-4

exatecan mesylate [PY-E, reference compound]
IC50 on N87 cells, ratio to DXD [2]: 0.4782 | IC50 on 468 cells, ratio to DXD [3]: 0.3546 | IC50 in H358 cells, ratio to DXD [4]: 0.2694 | IC50 in H82 cells, ratio to DXD [5]: 0.5103 | IC50 in H1650 cells, ratio to DXD [6]: 0.1570 | IC50 in H1975 cells, ratio to DXD [7]: 0.0963 | IC50 in H1437 cells, ratio to DXD [8]: 0.2303 | IC50 in H23 cells, ratio to DXD [9]: 0.1245 | IC50 in SW1573 cells, ratio to DXD [10]: 0.3310 | IC50 in PANC-1 cells, ratio to DXD [11]: 0.1086 | IC50 in Colo-205 cells, ratio to DXD [12]: 0.2938 | IC50 in HT-29 cells, ratio to DXD [13]: 0.1376 | IC50 in A549 cells, ratio to DXD [14]: 0.1645 | IC50 in FADU cells, ratio to DXD [15]: 0.4464 | IC50 in OVCAR3 cells, ratio to DXD [16]: 0.2269 | IC50 in PA-1 cells, ratio to DXD [17]: 0.3572 | IC50 in SW1990 cells, ratio to DXD [18]: 0.3581

CC[C@@]1(O)C(=O)OCc2c1cc1n(c2=O)Cc2c-1nc1cc(F)c(O)c3c1c2CCC3 [PY-13, (S)-9-ethyl-5-fluoro-4,9-dihydroxy-1,2,3,9,12,15-hexahydro-10H,13H-benzo[de]pyrano[3′,4:6,7]indolizino[1,2-b]quinolin-10,13-dione]
IC50 on N87 cells, ratio to DXD [2]: 0.0852 | IC50 on 468 cells, ratio to DXD [3]: 0.0798 | IC50 in H358 cells, ratio to DXD [4]: 0.1062 | IC50 in H82 cells, ratio to DXD [5]: 0.1364 | IC50 in H1650 cells, ratio to DXD [6]: 0.0415 | IC50 in H1975 cells, ratio to DXD [7]: 0.0426 | IC50 in H1437 cells, ratio to DXD [8]: 0.0969 | IC50 in H23 cells, ratio to DXD [9]: 0.0819 | IC50 in SW1573 cells, ratio to DXD [10]: 0.1570 | IC50 in PANC-1 cells, ratio to DXD [11]: 0.0810 | IC50 in Colo-205 cells, ratio to DXD [12]: 0.1643 | IC50 in HT-29 cells, ratio to DXD [13]: 0.1434 | IC50 in A549 cells, ratio to DXD [14]: 0.0899 | IC50 in FADU cells, ratio to DXD [15]: 0.1648 | IC50 in OVCAR3 cells, ratio to DXD [16]: 0.0560 | IC50 in PA-1 cells, ratio to DXD [17]: 0.1600 | IC50 in SW1990 cells, ratio to DXD [18]: 0.1255 | IC50 in DMS53 cells, ratio to DXD [19]: 0.1624
